Measurements as given in BindingDB's records for doi:10.1007/BF02244985 (Mayo Clinic, 1994).
Counter-ions that a name gives are not always drawn.

Tests used:
[1] = biological target: T1, 5-hydroxytryptamine receptor 1A (Homo sapiens, UniProt P08908)
T1 sequence (P08908 whole entry): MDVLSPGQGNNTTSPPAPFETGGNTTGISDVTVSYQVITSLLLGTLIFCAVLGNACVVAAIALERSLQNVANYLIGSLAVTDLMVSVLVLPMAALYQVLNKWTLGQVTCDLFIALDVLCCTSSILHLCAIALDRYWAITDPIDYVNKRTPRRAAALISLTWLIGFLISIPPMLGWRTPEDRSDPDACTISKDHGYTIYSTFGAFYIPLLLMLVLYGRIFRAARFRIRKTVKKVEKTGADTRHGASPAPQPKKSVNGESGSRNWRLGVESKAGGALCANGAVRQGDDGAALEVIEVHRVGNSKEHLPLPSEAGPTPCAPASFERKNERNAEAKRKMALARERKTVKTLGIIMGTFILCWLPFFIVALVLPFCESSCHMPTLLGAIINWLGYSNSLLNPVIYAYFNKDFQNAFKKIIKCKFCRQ

D(2) dopamine receptor = D(2) dopamine receptor (Homo sapiens, UniProt P14416)
[2] = biological target: T2, Alpha-1A adrenergic receptor (Homo sapiens, UniProt P35348)
T2 sequence (P35348 whole entry): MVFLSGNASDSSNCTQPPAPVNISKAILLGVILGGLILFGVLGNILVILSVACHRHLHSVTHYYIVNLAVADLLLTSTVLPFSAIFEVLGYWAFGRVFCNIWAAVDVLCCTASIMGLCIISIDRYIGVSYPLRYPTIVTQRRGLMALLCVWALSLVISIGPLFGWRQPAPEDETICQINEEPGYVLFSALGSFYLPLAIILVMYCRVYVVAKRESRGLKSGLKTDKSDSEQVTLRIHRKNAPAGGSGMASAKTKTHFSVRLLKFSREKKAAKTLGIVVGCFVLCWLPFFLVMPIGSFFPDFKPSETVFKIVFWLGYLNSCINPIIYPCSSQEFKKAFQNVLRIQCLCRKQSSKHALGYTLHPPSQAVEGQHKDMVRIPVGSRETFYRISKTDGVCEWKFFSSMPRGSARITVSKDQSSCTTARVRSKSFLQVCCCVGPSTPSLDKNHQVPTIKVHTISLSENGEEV

[3] = biological target: T3, Muscarinic acetylcholine receptor M2 (Homo sapiens, UniProt P08172)
T3 sequence (P08172 whole entry): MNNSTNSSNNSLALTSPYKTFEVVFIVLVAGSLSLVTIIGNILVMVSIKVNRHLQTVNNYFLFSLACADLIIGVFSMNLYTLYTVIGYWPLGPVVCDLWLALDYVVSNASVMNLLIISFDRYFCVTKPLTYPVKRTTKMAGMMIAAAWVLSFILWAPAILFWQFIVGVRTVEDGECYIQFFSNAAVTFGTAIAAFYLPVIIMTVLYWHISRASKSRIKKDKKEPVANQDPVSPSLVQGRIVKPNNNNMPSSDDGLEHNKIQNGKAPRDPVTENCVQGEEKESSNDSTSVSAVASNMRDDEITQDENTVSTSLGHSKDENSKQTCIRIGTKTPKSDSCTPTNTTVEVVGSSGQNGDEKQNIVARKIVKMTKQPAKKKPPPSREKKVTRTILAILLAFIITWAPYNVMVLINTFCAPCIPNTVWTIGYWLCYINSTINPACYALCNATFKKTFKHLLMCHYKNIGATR

[4] = biological target: T4, Alpha-2A adrenergic receptor (Homo sapiens, UniProt P08913)
T4 sequence (P08913 whole entry): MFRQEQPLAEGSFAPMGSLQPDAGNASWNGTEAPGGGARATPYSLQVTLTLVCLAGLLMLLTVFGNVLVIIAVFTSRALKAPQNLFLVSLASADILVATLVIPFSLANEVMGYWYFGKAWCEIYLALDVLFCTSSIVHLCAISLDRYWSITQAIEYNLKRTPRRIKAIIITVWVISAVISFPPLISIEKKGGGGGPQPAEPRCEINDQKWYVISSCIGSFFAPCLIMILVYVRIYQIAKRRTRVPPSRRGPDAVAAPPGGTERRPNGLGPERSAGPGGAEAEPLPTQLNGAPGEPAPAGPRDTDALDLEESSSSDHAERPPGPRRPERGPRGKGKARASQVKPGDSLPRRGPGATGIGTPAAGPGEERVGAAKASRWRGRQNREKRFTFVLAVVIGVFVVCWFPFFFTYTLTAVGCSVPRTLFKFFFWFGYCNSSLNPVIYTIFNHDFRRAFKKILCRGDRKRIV

Chain of D(2) dopamine receptor (P14416 whole entry): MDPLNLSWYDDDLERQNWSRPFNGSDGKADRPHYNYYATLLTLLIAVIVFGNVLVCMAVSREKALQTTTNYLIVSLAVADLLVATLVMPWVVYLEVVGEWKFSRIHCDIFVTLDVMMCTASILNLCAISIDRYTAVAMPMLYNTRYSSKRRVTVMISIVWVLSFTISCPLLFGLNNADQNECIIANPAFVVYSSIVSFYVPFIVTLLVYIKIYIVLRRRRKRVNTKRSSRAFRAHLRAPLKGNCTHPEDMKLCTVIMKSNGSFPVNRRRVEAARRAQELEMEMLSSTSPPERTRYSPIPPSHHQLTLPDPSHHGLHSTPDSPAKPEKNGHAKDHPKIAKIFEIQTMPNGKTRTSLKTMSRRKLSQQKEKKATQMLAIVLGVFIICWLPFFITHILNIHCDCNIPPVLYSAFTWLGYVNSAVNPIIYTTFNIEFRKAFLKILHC

| SMILES | Ki [1] [nM] | Ki (D(2) dopamine receptor) [nM] | Ki [2] [nM] | Ki [3] [nM] | Ki [4] [nM] |
| --- | --- | --- | --- | --- | --- |
| CC(NC(C)(C)C)C(=O)c1cccc(Cl)c1 (stereo not given) [BUPROPION HYDROCHLORIDE] | > 10000 | > 10000 | 4200 | > 10000 | > 10000 |
| COc1ccc(C(CN(C)C)C2(O)CCCCC2)cc1 (stereo not given) [NSC_62923] | > 10000 | > 10000 | > 10000 | > 10000 | > 10000 |
| CN(C)CCCN1c2ccccc2CCc2ccccc21 | 5800 | 620 | 32 | 46 | 3100 |
| CN(C)CCC=C1c2ccccc2CCc2ccccc21 | 450 | 1460 | 24 |  | 690 |
| COc1ccc(OC[C@H]2CN(C)CC[C@@H]2c2ccccc2)cc1 [(3R,4S)-3-(4-Methoxy-phenoxymethyl)-1-methyl-4-phenyl-piperidine] | 2290 | 590 | 650 | 184 | 1970 |
| N[C@H]1CC[C@@H](c2ccc(Cl)c(Cl)c2)c2ccccc21 | > 10000 | > 10000 | 1200 | 1430 | 7800 |
| CNCCC=C1c2ccccc2CCc2ccccc21 [NORTRIPTYLINE] | 294 | 2570 | 55 | 37 |  |
| CN(C)Cc1nnc2n1-c1ccc(Cl)cc1C(c1ccccc1)=NC2 [NSC_37632] | > 10000 | > 10000 | > 10000 | > 10000 | > 10000 |
| CN[C@@H]1CC[C@@H](c2ccc(Cl)c(Cl)c2)c2ccccc21 [[4-(3,4-Dichloro-phenyl)-1,2,3,4-tetrahydro-naphthalen-1-yl]-methyl-amine] | > 10000 | > 10000 | 380 | 630 |  |
| CCc1nn(CCCN2CCN(c3cccc(Cl)c3)CC2)c(=O)n1CC [NSC_40589] | 85 | 2300 | 38 | > 10000 | 570 |
| CN(CCCN1c2ccccc2CCc2ccccc21)CC(=O)c1ccc(Cl)cc1 [CAS_23047-25-8] | 4600 | 2000 | 100 | 67 | 2700 |
| CCc1nn(CCCN2CCN(c3cccc(Cl)c3)CC2)c(=O)n1CCOc1ccccc1 [2-{3-[4-(3-chlorophenyl)piperazin-1-yl]propyl}-5-ethyl-4-(2-phenoxyethyl)-2,4-dihydro-3H-1,2,4-triazol-3-one] | 80 | 910 | 48 |  |  |
| CN(C)CC/C=C1/c2ccccc2COc2ccccc21 |  | 360 |  |  |  |
| CNCCCN1c2ccccc2CCc2ccccc21 [Desmethylimipramine] |  | 3500 |  |  |  |
| CNCCC(Oc1ccccc1C)c1ccccc1 (stereo not given) [Methyl-(3-phenyl-3-o-tolyloxy-propyl)-amine(tomoxetine)] |  |  | 3800 |  |  |
| Fc1ccc([C@@H]2CCNC[C@H]2COc2ccc3c(c2)OCO3)cc1 [PAROXETINE] | > 10000 | > 10000 |  |  |  |
| NCC[C@H](Oc1ccc(C(F)(F)F)cc1)c1ccccc1 [NORFLUOXETINE] | > 10000 | > 10000 | 3900 | 810 | > 10000 |
